According to patent publication US20250049664A1, “SKIN EXTERNAL APPLICATION COMPOSITION FOR SKIN BARRIER STRENGTHENING OR SKIN MOISTURIZING CONTAINING DEHYDROABIETIC ACID” (AMOREPACIFIC CORPORATION, priority 2018, published 2025):

Legend:
Format in all cases: cell-based, human
PPARα = target: T1, PPARα (Mus musculus, UniProt P23204); test: PPARα activation, PPRE-luciferase reporter assay in transfected HaCaT cells; conditions: 10 μM; for PPARα activation (%): 24 hours, luciferase activity relative to ethanol negative control (100)
T1 construct: expressed in transfected cells; host or cells: HaCaT (human keratinocytes), transiently transfected
T1 sequence (P23204 1-468): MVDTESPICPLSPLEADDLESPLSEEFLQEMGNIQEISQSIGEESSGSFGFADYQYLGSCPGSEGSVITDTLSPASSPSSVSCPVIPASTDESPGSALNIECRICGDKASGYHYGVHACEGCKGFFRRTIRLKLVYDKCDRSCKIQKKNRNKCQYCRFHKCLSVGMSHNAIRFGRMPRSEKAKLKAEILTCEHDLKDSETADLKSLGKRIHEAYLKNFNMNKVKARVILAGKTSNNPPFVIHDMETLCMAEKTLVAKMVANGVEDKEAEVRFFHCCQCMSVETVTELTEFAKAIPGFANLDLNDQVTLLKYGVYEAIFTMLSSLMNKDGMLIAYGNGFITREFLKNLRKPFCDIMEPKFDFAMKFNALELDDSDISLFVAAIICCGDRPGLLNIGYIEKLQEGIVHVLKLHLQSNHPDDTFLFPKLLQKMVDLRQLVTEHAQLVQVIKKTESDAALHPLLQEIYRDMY
From the text: HaCaT cells, which are human keratinocytes, were subcultured in DMEM containing 10% fetal bovine serum. A phenol red-free medium was used to avoid the effect of phenol red on estrogen. The following plasmids were used: a plasmid having the PPARα gene downstream of a universal promoter which is expressed in general culture conditions; a plasmid having a PPAR response element (PPRE) activated by binding with ligand-bound PPAR as a promoter and a firefly luciferase gene reporter downstream of the promoter; and a reference plasmid having a β-galactosidase gene bound to a universal promoter [Kliewer, S. A., Forman, B. M., Blumberg, B., Ong, […]., Evans, R. M., Differential expression and activation of a family of murine peroxisome proliferator-activated receptors, Proc. Natl. Acad. Sci. USA, 91 (1994) 7355-7359.]. The HaCaT cells were seeded onto a 24-well plate at a density of 5×10^4 cells/well, cultured for 24 hours, and then transiently transfected with the plasmid genes. After 24 hours of culturing, followed by washing with phosphate-buffered saline (PBS), the ells were treated with dehydroabietic acid of Chemical Formula 1 purchased from Ramidus AB or WY14643, which is a PPARα ligand, as a positive control group at 10 μM. WY14643 is reported as a PPARα ligand which induces keratinocyte differentiation and strengthens skin barrier. A negative control group was treated with ethanol. After 24 hours of culturing, followed by washing with PBS, the cells were harvested and luciferase activity was measured. […] The result for each treatment group was represented relative to that of the negative control group.

PPARα gene = test: Quantitative RT-PCR of PPARα gene expression in HaCaT cells; conditions: for Gene expression level (fold) PPARα: 24 hours, relative mRNA level vs ethanol negative control as 1
Method: (§1) HaCaT cells were cultured in Dulbecco's modified Eagle's medium (DMEM, GIBCO 1210-0038) containing 10% fetal bovine serum. 1×10^6 cells were placed in a […] flask and cultured for 24 hours. Then, after treating with DMEM not containing fetal bovine serum and culturing for 24 hours, the cells were treated with dehydroabietic acid in a medium not containing fetal bovine serum for 24 hours. Then, after harvesting the cells and washing with cooled phosphate-buffered saline (PBS), total RNA was extracted by adding 1 mL of TRIzolTM reagent (Life Technologies, Inc.). Then, quantitative reverse transcriptase PCR was conducted. The primer sequences of PPARα. TGase 1, filaggrin and HAS 2 used to conduct PCR are described in Table 2. After adding 4 μg of total RNA to 25 μL of a reverse transcription buffer containing 50 mM Tris-HCl (pH 8.3), 75 mM KCl, 3 mM MgCl^2, 0.1 M DTT, 10 mM dNTP and 40 units/μL RNase inhibitor, 0.5 μg/μL oligo (dT)16 primer and 200 units of SuperScript II (GIBCO BRL) were added and incubation was conducted at 42° C. for 1 hour. Then, after mixing 2.5 μL of the reverse transcription solution with a 50 µL of a PCR buffer containing AmpliTaq DNA polymerase (0.04U, Perkin Elmer, Shelton, CT), 50 mM Tris (pH 8.3), 0.25 mg/mL bovine serum albumin, 3 mM MgCl2, 0.25 mM dNTPs and a 1/50,000 diluted solution of SYBR Green I (Molecular Probes, Eugene, OR), 10 μM of primers were added and PCR was conducted for 30 cycles of 30 seconds at 94° C., 30 seconds at 53°° C. and 1 minute at 72° C. Relative mRNA level was analyzed by measuring the change in the fluorescence of SYBR Green I using the ICycler software. WY14643, which is a PPARα ligand, was used as a positive control group. The relative mRNA level was represented relative to an ethanol-treated negative control group as 1. […] WY14643 is a PPARα ligand reported to induce keratinocyte differentiation and strengthen skin barrier.

[1] = tested on: transglutaminase 1 (TGase 1) gene; test: Quantitative RT-PCR of TGase 1 gene expression in HaCaT cells; conditions: for Gene expression level (fold) TGase1: 24 hours, relative mRNA level vs ethanol negative control as 1
Method: as §1

filaggrin gene = test: Quantitative RT-PCR of filaggrin gene expression in HaCaT cells; conditions: for Gene expression level (fold) Filaggrin: 24 hours, relative mRNA level vs ethanol negative control as 1
Method: as §1

[2] = tested on: hyaluronic acid synthase 2 (HAS 2) gene; test: Quantitative RT-PCR of HAS 2 gene expression in HaCaT cells; conditions: for Gene expression level (fold) HAS 2: 24 hours, relative mRNA level vs ethanol negative control as 1
Method: as §1

PPARα activation (%) (PPARα)	PPARα activation (luciferase activity), result in words (PPARα; compared with WY14643 positive control)	Structure (SMILES)	Gene expression level (fold) PPARα (PPARα gene; 1 μM) [fold]	Gene expression level (fold) PPARα (PPARα gene; 10 μM) [fold]	Expression of the PPARα gene, result in words (PPARα gene; treatment for 24 hours)	Gene expression level (fold) TGase1 ([1]; 1 μM) [fold]	Gene expression level (fold) TGase1 ([1]; 10 μM) [fold]	Expression of the transglutaminase 1 (TGase 1) gene, result in words ([1]; treatment for 24 hours)	Gene expression level (fold) Filaggrin (filaggrin gene; 1 μM) [fold]	Gene expression level (fold) Filaggrin (filaggrin gene; 10 μM) [fold]	Expression of the filaggrin gene, result in words (filaggrin gene; treatment for 24 hours)	Gene expression level (fold) HAS 2 ([2]; 1 μM) [fold]	Gene expression level (fold) HAS 2 ([2]; 10 μM) [fold]	Expression of the hyaluronic acid synthase 2 (HAS 2) gene, result in words ([2]; treatment for 24 hours)
291.5	induced PPARα activation	CC(C)c1ccc2c(c1)CC[C@H]1[C@](C)(C(=O)O)CCC[C@]21C [Dehydroabietic acid, dehydroabietic acid]	2.65	6.16	significantly increased	2.58	5.94	significantly increased	2.31	3.34	significantly increased	12.4	40.15	significantly increased
286.9		Cc1cccc(Nc2cc(Cl)nc(SCC(=O)O)n2)c1C [WY14643, reference compound]	2.54	5.96		2.13	4.98		1.86	3.12		9.64	35.93	
